From ChEMBL document CHEMBL1145364, “A novel artemisinin-quinine hybrid with potent antimalarial activity” (Bioorg Med Chem Lett, 2007)

What was measured:
Type in all cases: functional, organism-based
Plasmodium falciparum [1] = assay: Antimalarial activity against chloroquine-resistant Plasmodium falciparum FcB1 after 72 hrs by pLDH assay; conditions: FcB1, 72 h
Plasmodium falciparum [2] = assay: Antimalarial activity against chloroquine-resistant Plasmodium falciparum FcB1 after 48 hrs by pLDH assay; conditions: FcB1, 48 h
Plasmodium falciparum [3] = assay: Antimalarial activity against Plasmodium falciparum 3D7 after 48 hrs by pLDH assay; conditions: 3D7, 48 h
Plasmodium falciparum [4] = assay: Antimalarial activity against Plasmodium falciparum 3D7 after 72 hrs by pLDH assay; conditions: 3D7, 72 h

SMILES | IC50 (Plasmodium falciparum [1]) | IC50 (Plasmodium falciparum [2]) | IC50 (Plasmodium falciparum [3]) | IC50 (Plasmodium falciparum [4])
C[C@@H]1CC[C@H]2[C@@H](C)C(=O)O[C@@H]3O[C@@]4(C)CC[C@@H]1[C@]32OO4 [ARTEMISININ] | 55 nM | 50 nM | 49.4 nM | 45.5 nM
C=C[C@H]1CN2CC[C@H]1C[C@H]2[C@H](O)c1ccnc2ccc(OC)cc12 [QUININE] | 75.3 nM | 96.8 nM | 149 nM | 73.5 nM
COc1ccc2nccc([C@@H](O)C3CC4CCN3CC4CC(=O)O[C@@H]3OC4O[C@]5(C)CCC6[C@H](C)CCC([C@H]3C)[C@@]46OO5)c2c1 (some centres not stated) | 10.2 nM | 9.59 nM | 8.95 nM | 10.4 nM
